Experiment: Anti-oxidation: DPPH free radical scavenging
Details: positive control at 400 μg/ml
Protocol: The antioxidant activity was evaluated by measuring the ability of scavenging a free radical, DPPH (1,1-diphenyl-2-picrylhydrazyl). DPPH, a radical with a color, was used to directly determine the radical scavenging ability of the sample.
50 μl of each sample of Examples 1 to 13 and Comparative Examples 1 to 5 was mixed with 1 ml of a 100 μM DPPH solution. The resultant mixture was subjected to reaction and incubation at 20° C. (room temperature) at 30 minutes. Then, the amount of the remaining DPPH was determined through the absorbance measurement at 517 nm.
Upon completion of the reaction, the free radical scavenging activity (%) of the sample was calculated according to Equation 3 below. In this regard, the positive control was 400 μg/ml of ascorbic acid, and the blank was purified water. Radical Scavenging Ability (%)={1−(absorbance of sample-added group/absorbance of sample-free group)×100} [Equation 3]

SMILES: O=C1O[C@H]([C@@H](O)CO)C(O)=C1O [Ascorbic acid]
- Free radical scavenging ability: 80.7%

Reference: US11975095B2, “Callus lysate comprising high content of callus metabolite and preparation method thereof” (BIOSPECTRUM, INC., priority 2020, dated 2024)
